Laboratory results reported in ChEMBL document CHEMBL4476884, “Thienopyridine carboxamides as ubiquitin-specific protease inhibitors” (2017).
pIC50: −log10 of the molar value.

Columns and labels:
[1] = biological target: T1, Ubiquitin carboxyl-terminal hydrolase 25 (Homo sapiens, UniProt Q9UHP3); assay: Inhibition of recombinant C-terminal 6-His tagged human USP25 using ubiquitin-rhodamine 110 as substrate preincubated for 30 mins followed by substrate addition and measured after 45 mins by fluorescence based assay
T1 sequence (Q9UHP3 whole entry): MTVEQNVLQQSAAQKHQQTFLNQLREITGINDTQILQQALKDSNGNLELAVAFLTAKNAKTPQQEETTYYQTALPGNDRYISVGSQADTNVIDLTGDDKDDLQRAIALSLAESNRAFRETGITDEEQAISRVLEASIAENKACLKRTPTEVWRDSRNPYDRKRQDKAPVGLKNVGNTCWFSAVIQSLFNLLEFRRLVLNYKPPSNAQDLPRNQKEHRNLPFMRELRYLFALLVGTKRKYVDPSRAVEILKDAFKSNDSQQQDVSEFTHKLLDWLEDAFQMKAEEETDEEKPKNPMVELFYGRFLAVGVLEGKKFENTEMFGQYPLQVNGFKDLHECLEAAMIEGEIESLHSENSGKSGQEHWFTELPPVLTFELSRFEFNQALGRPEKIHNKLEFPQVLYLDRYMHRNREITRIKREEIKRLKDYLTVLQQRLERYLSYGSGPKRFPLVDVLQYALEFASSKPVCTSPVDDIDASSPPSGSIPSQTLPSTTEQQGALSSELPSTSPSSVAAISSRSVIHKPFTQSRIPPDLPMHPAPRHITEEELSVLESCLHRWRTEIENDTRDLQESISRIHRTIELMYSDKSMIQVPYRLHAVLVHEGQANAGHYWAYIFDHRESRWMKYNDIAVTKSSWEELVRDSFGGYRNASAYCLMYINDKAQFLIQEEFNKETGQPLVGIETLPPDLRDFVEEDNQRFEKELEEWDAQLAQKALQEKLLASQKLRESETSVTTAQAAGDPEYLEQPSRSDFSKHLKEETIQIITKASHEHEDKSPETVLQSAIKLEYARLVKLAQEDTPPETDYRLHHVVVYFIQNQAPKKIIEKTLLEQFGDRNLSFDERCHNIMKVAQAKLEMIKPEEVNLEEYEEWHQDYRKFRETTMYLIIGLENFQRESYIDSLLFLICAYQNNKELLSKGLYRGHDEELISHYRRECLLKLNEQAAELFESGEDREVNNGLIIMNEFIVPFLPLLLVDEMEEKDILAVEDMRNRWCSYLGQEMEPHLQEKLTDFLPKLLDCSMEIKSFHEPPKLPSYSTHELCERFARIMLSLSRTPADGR

[2] = biological target: T2, Ubiquitin carboxyl-terminal hydrolase 28 (Homo sapiens, UniProt Q96RU2); assay: Inhibition of TEV-cleavable hexa-histidine tagged USP28 (1 to 1077 residues) (unknown origin) using ubiquitin-rhodamine 110 as substrate and measured after 90 mins by fluorescence based assay
T2 sequence (Q96RU2 whole entry): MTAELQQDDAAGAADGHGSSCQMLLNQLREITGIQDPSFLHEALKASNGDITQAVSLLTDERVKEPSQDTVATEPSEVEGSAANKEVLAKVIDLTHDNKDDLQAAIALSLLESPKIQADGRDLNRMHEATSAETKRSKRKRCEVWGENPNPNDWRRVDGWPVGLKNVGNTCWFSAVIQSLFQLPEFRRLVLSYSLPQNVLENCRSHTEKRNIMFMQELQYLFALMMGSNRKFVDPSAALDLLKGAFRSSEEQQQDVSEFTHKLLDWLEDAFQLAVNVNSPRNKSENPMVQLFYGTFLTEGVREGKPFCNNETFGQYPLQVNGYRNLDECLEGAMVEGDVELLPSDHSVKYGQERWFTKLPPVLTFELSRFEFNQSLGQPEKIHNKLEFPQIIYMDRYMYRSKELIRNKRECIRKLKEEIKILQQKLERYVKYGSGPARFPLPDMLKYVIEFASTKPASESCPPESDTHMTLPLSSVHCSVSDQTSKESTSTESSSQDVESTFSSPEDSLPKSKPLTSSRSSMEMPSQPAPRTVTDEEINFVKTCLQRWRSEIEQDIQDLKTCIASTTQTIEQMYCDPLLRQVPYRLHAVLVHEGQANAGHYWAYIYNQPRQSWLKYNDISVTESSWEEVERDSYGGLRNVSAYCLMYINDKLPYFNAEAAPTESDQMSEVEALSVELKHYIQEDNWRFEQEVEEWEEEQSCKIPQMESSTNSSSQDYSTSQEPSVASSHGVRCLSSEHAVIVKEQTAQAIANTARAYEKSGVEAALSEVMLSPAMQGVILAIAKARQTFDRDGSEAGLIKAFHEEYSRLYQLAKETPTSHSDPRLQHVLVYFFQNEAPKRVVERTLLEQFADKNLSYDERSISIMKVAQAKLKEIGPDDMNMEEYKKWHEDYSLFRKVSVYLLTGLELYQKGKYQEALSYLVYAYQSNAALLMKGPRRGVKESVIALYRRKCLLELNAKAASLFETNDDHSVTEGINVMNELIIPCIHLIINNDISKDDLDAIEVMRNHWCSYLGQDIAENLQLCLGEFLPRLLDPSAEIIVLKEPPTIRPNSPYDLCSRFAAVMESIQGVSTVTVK

SMILES | pIC50 [1] | pIC50 [2]
CN[C@H]1CCN(c2ccc(CCNC(=O)c3sc4nc(C)ccc4c3N)cc2)C1 | 5.70 to 6.70 | 5.70 to 6.70
Cc1ccc2c(N)c(C(=O)NCCc3ccc(N4CCNCC4)c(-c4cnn(C)c4)c3)sc2n1 | 5.00 to 5.70 | 5.70 to 6.70
Cc1ccc2c(N)c(C(=O)NCCc3ccc(N4CCN[C@H](C)C4)cc3)sc2n1 | 5.70 to 6.70 | > 6.70
Cc1ccc2c(N)c(C(=O)NCCc3ccc(N4CCNCC4)c(-c4cncnc4)c3)sc2n1 | 5.70 to 6.70 | 5.70 to 6.70
Cc1cccc(-c2cc(CCNC(=O)c3sc4nc(C)ccc4c3N)ccc2N2CCNCC2)c1 | 5.00 to 5.70 | 4.60 to 5.00
Cc1ccc2c(N)c(C(=O)NCCc3ccc(N(C)CC4CCCNC4)cc3)sc2n1 (centres undefined) | 5.70 to 6.70 | 5.70 to 6.70
Cc1ccc2c(N)c(C(=O)NCCc3ccc(N4CCNCC4)c(-c4cccc(Cl)c4)c3)sc2n1 | 5.00 to 5.70 | 5.00 to 5.70
Cc1ccc2c(N)c(C(=O)NCCc3ccc(N4CCNCC4)c(-c4ccc(Cl)cc4)c3)sc2n1 | 5.00 to 5.70 | 5.00 to 5.70
Cc1ccc2c(N)c(C(=O)NCCc3ccc(N4CCNCC4)c(-c4ccccc4F)c3)sc2n1 | 5.00 to 5.70 | 5.70 to 6.70
CNC1CCN(c2ccc(CCNC(=O)c3sc4nc(C)ccc4c3N)cc2)CC1 |  | 5.70 to 6.70
Cc1ccc2c(N)c(C(=O)NCCc3ccc(N4CCN[C@@H](C(C)C)C4)cc3)sc2n1 | 5.70 to 6.70 | 5.70 to 6.70
CN[C@@H]1CCN(c2ccc(CCNC(=O)c3sc4nc(C)ccc4c3N)cc2)C1 |  | 5.70 to 6.70
COCCn1cc(-c2cc(CCNC(=O)c3sc4nc(C)ccc4c3N)ccc2N2CCNCC2)cn1 | 5.00 to 5.70 | 5.00 to 5.70
CC(=O)Nc1ccc2c(N)c(C(=O)NCCc3ccc(N4CCNCC4)cc3)sc2n1 |  | 5.00 to 5.70
Cc1ccc2c(N)c(C(=O)NCCc3ccc(N[C@@H]4CCNC4)cc3)sc2n1 |  | > 6.70
Cc1ccc2c(N)c(C(=O)NCCc3ccc(N4CCNCC4)c(-c4cccc(F)c4)c3)sc2n1 | 5.00 to 5.70 | 5.00 to 5.70
Cc1ccc2c(N)c(C(=O)NCCc3ccc(N4CCNCC4)c(-c4ccccc4Cl)c3)sc2n1 | 5.70 to 6.70 | 5.70 to 6.70
Cc1ccc2c(N)c(C(=O)NCCc3ccc(N4CCNCC4)c(-c4ccc(F)cc4)c3)sc2n1 | 5.00 to 5.70 | 5.00 to 5.70
Cc1ccc2c(N)c(C(=O)NCCc3ccc(N4CCNCC4)c(-c4ccccc4C)c3)sc2n1 | 5.00 to 5.70 | 5.70 to 6.70
Cc1ccc2c(N)c(C(=O)NCCc3ccc(N4CCC(NC5CC5)C4)cc3)sc2n1 (centres undefined) | 5.70 to 6.70 | 5.70 to 6.70
Cc1cc(-c2cc(CCNC(=O)c3sc4nc(C)ccc4c3N)ccc2N2CCNCC2)ccn1 | 4.60 to 5.00 | 5.00 to 5.70
Cc1ccc(-c2cc(CCNC(=O)c3sc4nc(C)ccc4c3N)ccc2N2CCNCC2)cc1 | 5.00 to 5.70 | 5.00 to 5.70

More lines, now with the values ahead:

pIC50 [1] | pIC50 [2] | SMILES
5.70 to 6.70 | > 6.70 | Cc1ccc2c(N)c(C(=O)NCCc3ccc(N4CCC5(CC4)CNC5)cc3)sc2n1
5.00 to 5.70 | 5.70 to 6.70 | Cc1ccc2c(N)c(C(=O)NCCc3ccc(N4CCC5(CCNC5)C4)cc3)sc2n1 (centres undefined)
5.70 to 6.70 | > 6.70 | Cc1ccc2c(N)c(C(=O)NCCc3ccc(N4CCCC45CCCNC5)cc3)sc2n1 (centres undefined)
5.70 to 6.70 | 5.70 to 6.70 | Cc1ccc2c(N)c(C(=O)NCCc3ccc(N4CCCNCC4)cc3)sc2n1
 | 5.70 to 6.70 | Cc1ccc2c(N)c(C(=O)NCCc3ccc(N4CCC5(CCNC5)CC4)cc3)sc2n1
5.70 to 6.70 | 5.70 to 6.70 | Cc1ccc2c(N)c(C(=O)NCCc3ccc(N4C[C@H]5CNC[C@H]5C4)cc3)sc2n1
5.70 to 6.70 | 5.70 to 6.70 | Cc1ccc2c(N)c(C(=O)NCCc3ccc(N4CCCC5(CCNC5)C4)cc3)sc2n1 (centres undefined)
5.00 to 5.70 | 5.70 to 6.70 | Cc1ccc2c(N)c(C(=O)NCCc3ccc(N4CCC5(CNCCO5)C4)cc3)sc2n1 (centres undefined)
5.00 to 5.70 | 5.70 to 6.70 | Cc1ccc2c(N)c(C(=O)NCCc3ccc(N4CCC5(CCNCC5)C4)cc3)sc2n1
5.00 to 5.70 | 5.70 to 6.70 | Cc1ccc2c(N)c(C(=O)NCCc3ccc(N4CC5(CNC5)C4)cc3)sc2n1
 | 5.70 to 6.70 | Cc1ccc2c(N)c(C(=O)NCCc3ccc(N4CCOC5(CCNCC5)C4)cc3)sc2n1
5.70 to 6.70 | > 6.70 | Cc1ccc2c(N)c(C(=O)NCCc3ccc(N4CCN[C@H](C(C)C)C4)cc3)sc2n1
5.70 to 6.70 | > 6.70 | Cc1ccc2c(N)c(C(=O)NCCc3ccc(N4CCCC5(CCNCC5)C4)cc3)sc2n1
5.70 to 6.70 | 5.70 to 6.70 | Cc1ccc2c(N)c(C(=O)NCCc3ccc(N4CCC5(CCCNC5)CC4)cc3)sc2n1
5.70 to 6.70 | > 6.70 | Cc1ccc2c(N)c(C(=O)NCCc3ccc(N4CC5(CCCN5)C4)cc3)sc2n1
5.70 to 6.70 | 5.70 to 6.70 | Cc1ccc2c(N)c(C(=O)NCCc3ccc(N4CCCC5(CCCNC5)C4)cc3)sc2n1 (centres undefined)
 | 5.70 to 6.70 | Cc1ccc2c(N)c(C(=O)NCCc3ccc(N4CC[C@H]5CNC[C@H]5C4)cc3)sc2n1
 | > 6.70 | Cc1ccc2c(N)c(C(=O)NCCc3ccc(N4CCNC[C@@H]4C)cc3)sc2n1
> 6.70 | > 6.70 | Cc1ccc2c(N)c(C(=O)NCCc3ccc(N4CCNC[C@H]4C)cc3)sc2n1
